The text below walks through data of article PMC9804781, “Identification of a Novel Pseudo‐Natural Product Type IV IDO1 Inhibitor Chemotype” (Angewandte Chemie (International Ed. in English), 2022).

One test has as its target T1, His-tagged IDO2 (Homo sapiens, UniProt Q6ZQW0).
T1 construct: His; purchased BPS Bioscience 72035 (kit)
T1 sequence (Q6ZQW0 1-407): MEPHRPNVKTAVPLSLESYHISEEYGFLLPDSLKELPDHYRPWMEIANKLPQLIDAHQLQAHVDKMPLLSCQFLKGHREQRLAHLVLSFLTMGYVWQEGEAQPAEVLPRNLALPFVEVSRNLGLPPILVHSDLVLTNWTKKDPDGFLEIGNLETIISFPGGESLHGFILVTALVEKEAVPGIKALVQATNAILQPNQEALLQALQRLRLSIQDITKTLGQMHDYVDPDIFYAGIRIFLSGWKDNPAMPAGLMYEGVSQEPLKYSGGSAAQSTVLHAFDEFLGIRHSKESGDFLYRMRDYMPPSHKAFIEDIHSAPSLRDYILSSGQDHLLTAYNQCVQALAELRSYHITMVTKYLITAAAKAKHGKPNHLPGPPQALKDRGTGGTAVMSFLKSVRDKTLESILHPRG
Nature of the test: IDO2 Activity Assay. It counts as biochemical. To be noted: 90 min + 120 min at 30 °C. On the procedure:
Inhibition of indoleamine 2,3-dioxygenase 2 (IDO2) was tested using the Universal IDO1/IDO2/TDO Inhibitor Screening Assay Kit (cat# 72035, BPS Bioscience, US). 10 µg His-tagged IDO2 in IDO2 Assay Buffer was incubated with Complete IDO2 Reaction Solution (1% (v/v) component 2 in component 1) and 50 µM Test Inhibitor (0.5% (v/v) DMSO) for 90 min at 30°C with slow shaking in the dark prior to initiation of the reaction by addition of 20% (v/v) IDO2 Substrate. Samples were incubated for 120 min at 30°C with slow shaking in the dark. Afterwards, absorbance at 321 nm was recorded on the Spark® Multimode Microplate Reader (Tecan, AT), all values were subtracted by the background and normalized to the DMSO control.

The next test has as its target T2, His-tagged TDO (Homo sapiens, UniProt P48775).
T2 construct: His; purchased BPS Bioscience 72035 (kit)
The experiment in a line: TDO Activity Assay. It counts as biochemical. To be noted: 120 min at 37 °C. On the procedure:
Inhibition of tryptophan 2,3-dioxygenase (TDO) was tested using the Universal IDO1/IDO2/TDO Inhibitor Screening Assay Kit (cat# 72035, BPS Bioscience, US). 500 ng His-tagged TDO in TDO Assay Buffer was incubated with Reaction Solution and 50 µM Test Inhibitor (0.5% (v/v) DMSO) for 120 min at 37°C with slow shaking in the dark. Afterwards, absorbance at 321 nm was recorded on the Spark® Multimode Microplate Reader (Tecan, AT), all values were subtracted by the background and normalized to the DMSO control. […]
(v/v) component 2 in component 1) and 50 µM Test Inhibitor (0.5% (v/v) DMSO) for 90 min at 30°C with slow shaking in the dark prior to initiation of the reaction by addition of 20% (v/v) IDO2 Substrate. Samples were incubated for 120 min at 30°C with slow shaking in the dark. […]

For another test, the system named is HeLa cells. Set-up: method as in ref 9a = [9]; 9. To be noted: ref 9a; cited from earlier work.
The test system of a further test is alkaline phosphatase. Nature of the test: Automated screen: alkaline phosphatase. To be noted: automated screening assay.
Test [1] concerns autophagy. Nature of the test: Automated screen: autophagy inhibition in the presence of rapamycin. To be noted: automated screening assay. It counts as cell-based.
The subject of the next test is BMP signaling. Nature of the test: Automated screen: BMP signaling. It counts as cell-based. To be noted: automated screening assay.
For test [2], the system named is autophagy. Nature of the test: Automated screen: autophagy induction under fed condition. Format: cell-based. To be noted: automated screening assay.
For another test, the system named is hedgehog signaling. Nature of the test: Automated screen: hedgehog signaling. Format: cell-based. To be noted: automated screening assay.
The next test has as its system Kyn levels in HeLa cells. The experiment in a line: Manual Kyn assay in HeLa cells (p-DMAB detection). It counts as cell-based. To be noted: IFN-γ, L-Trp, compounds 48 h, p-DMAB, mean n=3 ±SD, read-out: Kyn Assay IC50. The procedure: Mammalian cell lines were maintained at 37°C and 5% CO2 in a humidified atmosphere and sub-cultivated twice a week. All cell lines were tested regularly for mycoplasma contamination and were always free of mycoplasma. BxPC-3 cells (DSMZ#760) were grown in RPMI-1640 medium supplemented with 10% FBS, 2 mM L-glutamine, 1 mM sodium pyruvate, 4.5 g/L glucose, 10 mM HEPES and 1.5 g/L NaHCO3. HeLa cells (DSMZ#57) were cultivated in DMEM supplemented with 10% FBS, 4.5 g/L glucose, 4 mM L-glutamine 1 mM sodium pyruvate, 1% non-essential amino acids, 3.7 g/L NaHCO3. SKOV-3 cells (ATCC#HTB-77) were maintained in modified McCoy’s 5A medium supplemented with 10% FBS, 1.5 mM L-glutamine and 2.2 g/L NaHCO3. […]
For manual testing, BxPC-3, HeLa or SKOV-3 cells (20,000 cells/well, 5,000 cells/well or 6,250 cells/well, respectively) were seeded in 96-well plates (BxPC-3 and HeLa) or 384-well plates (SKOV-3) in medium without phenol red. After 24 h, the IDO1 pathway was induced by addition of 50 ng/mL (BxPC-3 and HeLa) or 17.6 ng/mL IFN-γ (SKOV-3) and 380 µM (BxPC-3), 164.15 µM (HeLa) or 450 µM L-Trp (SKOV-3) with simultaneous treatment with the compounds at the indicated concentrations followed by incubation for 48 h. For the hemin competition assay, hemin was added together with IFN-γ, L-Trp and the compounds. Subsequently, trichloroacetic acid was added to a final concentration of 7% (v/v), the plates were incubated for 15 min at room […]
temperature and centrifuged for 10 min at 1800 x g. Afterwards, an equal volume of freshly prepared 2% (w/v) p-DMAB in glacial acetic acid (Ehrlich reagent) was added prior to measuring the absorbance at 492 nm and 650 nm on the Spark® Multimode Microplate Reader (Tecan, AT).
To determine the Kyn levels, the absorbance of the Kyn-p-DMAB adduct A492 was subtracted by the background absorbance A650 and normalized to the DMSO control. Data analysis was performed using a non-linear regression curve fit and GraphPad Prism 9.0 (GraphPad Software, Inc, US) to generate dose-response curves and obtain IC50 values. […]
Subsequently, 10 mM ascorbic acid, 10 μM methylene blue, 2 mM L-Trp and 100 μg/mL catalase were added and samples were incubated for 60 min at room temperature or 37°C. […]

A further test concerns glucose uptake. Nature of the test: Automated screen: glucose uptake. Format: cell-based. To be noted: automated screening assay.
The test system of test [3] is Kyn levels in BxPC-3 cells. Nature of the test: Automated (high-throughput) Kyn assay in BxPC-3 cells (Kyn sensor). Format: cell-based. On the procedure: Mammalian cell lines were maintained at 37°C and 5% CO2 in a humidified atmosphere and sub-cultivated twice a week. All cell lines were tested regularly for mycoplasma contamination and were always free of mycoplasma. BxPC-3 cells (DSMZ#760) were grown in RPMI-1640 medium supplemented with 10% FBS, 2 mM L-glutamine, 1 mM sodium pyruvate, 4.5 g/L glucose, 10 mM […]
HEPES and 1.5 g/L NaHCO3. […]
High-throughput Kyn assay
Automated screening for modulators of Kyn levels in BxPC-3 cells was performed as published earlier.[2] Briefly, BxPC-3 cells (1,000 cells/well) were seeded in black 1536-well plates prior to incubation for 24 h and subsequent treatment with compounds, 380 µM L-Trp and 50 ng/mL IFN-γ for 48 h. Afterwards, trichloroacetic acid was added to a final concentration of 7% (v/v), the plates were incubated for 10 min at 37°C and centrifuged for 10 min at 1620 x g. Kyn was detected by addition of 17.5 µM Kyn sensor[14] in assay buffer (excitation: 535 nm, emission: […]

Test [4] relates to autophagy. Nature of the test: Automated screen: autophagy induction in the presence of chloroquine. It counts as cell-based. To be noted: automated screening assay.
For another test, the system named is Wnt signaling. The experiment in a line: Automated screen: Wnt signaling. It counts as cell-based. To be noted: automated screening assay.
In a further test the test system is purified IDO1. Also on record: method as in ref 36b = [36]; 36. To be noted: ref 36b; cited from earlier work.

Like-named read-outs stand apart in the source and are kept apart here.

T2 sequence (P48775 whole entry): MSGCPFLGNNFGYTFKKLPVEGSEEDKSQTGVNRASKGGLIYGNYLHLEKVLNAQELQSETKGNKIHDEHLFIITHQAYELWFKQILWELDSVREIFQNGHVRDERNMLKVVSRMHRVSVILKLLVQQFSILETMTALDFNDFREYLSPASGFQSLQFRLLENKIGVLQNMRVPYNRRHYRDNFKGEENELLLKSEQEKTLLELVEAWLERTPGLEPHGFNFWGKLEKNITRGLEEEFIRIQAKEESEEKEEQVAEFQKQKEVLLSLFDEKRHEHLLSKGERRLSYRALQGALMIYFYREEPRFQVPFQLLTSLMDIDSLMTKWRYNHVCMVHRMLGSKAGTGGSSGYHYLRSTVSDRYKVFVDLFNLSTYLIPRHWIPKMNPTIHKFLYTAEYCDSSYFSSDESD

One may read the IC50 as the concentration needed to halve the response being measured. Regarding `C[C@@H](C(=O)Nc1ccc(Cl)cc1)C1CCC(c2ccnc3ccc(F)cc23)CC1` (stereo partly shown) [BMS-986205], at His-tagged IDO2 (50 µM), the “inhibition of IDO2 (result in words)” value is “did not inhibit”. The “inhibition of TDO (result in words)” value against His-tagged TDO (50 µM) is “did not inhibit”. In addition, the IC50 in the test on HeLa cells was 0.0042 µM.
On to `CCOC(=O)C1=CC[C@](C(=O)OC)(c2cc3ccccc3n2C)N(S(=O)(=O)c2ccccc2[N+](=O)[O-])[C@@H]1C(=O)OC(C)(C)C` [Compound 3b], for which the “alkaline phosphatase, IC50/EC50” value in the test on alkaline phosphatase is “inactive”. For the same compound, the “autophagy inhibition in the presence of rapamycin, inhibition” value in the test with autophagy [1] worked out at 10.50 ± 9.50%. Further, in the test with BMP signaling, the “BMP signaling, inhibition” value is 37%. Also, in the test on autophagy [2], the “autophagy induction under fed condition, IC50/EC50” value was “inactive” and the “autophagy induction under fed condition, inhibition” value was 0.33 ± 0.47%. In the test on hedgehog signaling, the “hedgehog signaling, IC50/EC50” value is recorded as 6.33 ± 0.69 µM and the “hedgehog signaling, inhibition” value came to 73.0 ± 10.0%. Also, the IC50 in the test with Kyn levels in HeLa cells (listed as 3b^a) was 2.44 ± 0.56 µM. Moreover, the IC50 in the test with Kyn levels in HeLa cells (listed as 3b^b) amounted to 0.66 ± 0.05 µM. Further, in the test on Kyn levels in HeLa cells, the IC50 is 0.49 ± 0.1 µM. Besides, the “glucose uptake, inhibition” value in the test on glucose uptake came to 17%. Moreover, the “effect on cellular kynurenine (Kyn) levels” value in test [3] (BxPC-3 cells stimulated with IFN-γ) is “selectively decreased”. For the same compound, in test [3] (automated screening assay), the “kynurenine levels, IC50/EC50” value was determined as 0.63 ± 0.32 µM and the “kynurenine levels, inhibition” value was 94.0 ± 1%. In addition, in the test on autophagy [4], the “autophagy induction in the presence of chloroquine, IC50/EC50” value was “inactive” and the “autophagy induction in the presence of chloroquine, inhibition” value is listed as -3.67 ± 0.94%. For the same compound, in the test with Wnt signaling, the “Wnt signaling, inhibition” value is listed as 45.33 ± 1.89%.
Take `NS(=O)(=O)NCCNc1nonc1C(=NO)Nc1ccc(F)c(Br)c1` [epacadostat]: in the test on purified IDO1, the IC50 is 0.073 µM, the “selectivity over IDO2” value was more than 1000 fold and the “selectivity over TDO” value is more than 1000 fold. Also, the “reduction of IDO2 activity” value at His-tagged IDO2 (50 μM, n=3) was 49.9±0.3%. For the same compound, the “reduction of TDO activity” value at His-tagged TDO (50 μM, n=3) was 75.5±4.3%.
